Assay results taken from US20240360151A1 (SANOFI, priority 2023, published 2024).

biological target: T1, NLRP3 inflammasome (Homo sapiens, UniProt Q96P20); assay: IL-1β secretion assay (NLRP3 IC50) in LPS-primed, nigericin-activated THP-1 cells, HTRF; format: cell-based; conditions: monocytic THP-1 cells; LPS 10 ng/mL 3 h priming, then compound + nigericin 10 μM 2 h; relative IC50, 10 concentrations, geometric mean
T1 construct: endogenous in cells; host or cells: THP-1 monocytic cells
Procedure, shortened: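 IL-1β in supernatant read by HTRF after 2 h co-incubation of compound (0.1% DMSO, 10 concentrations, 1:3 series) with nigericin at 10 μM final, following 3 h LPS (10 ng/mL) priming of THP-1 monocytes at 37° C. Inhibition normalised to unactivated and no-compound controls; geometric-mean relative IC50 from 4-parameter logistic model.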

T1 sequence (Q96P20 whole entry): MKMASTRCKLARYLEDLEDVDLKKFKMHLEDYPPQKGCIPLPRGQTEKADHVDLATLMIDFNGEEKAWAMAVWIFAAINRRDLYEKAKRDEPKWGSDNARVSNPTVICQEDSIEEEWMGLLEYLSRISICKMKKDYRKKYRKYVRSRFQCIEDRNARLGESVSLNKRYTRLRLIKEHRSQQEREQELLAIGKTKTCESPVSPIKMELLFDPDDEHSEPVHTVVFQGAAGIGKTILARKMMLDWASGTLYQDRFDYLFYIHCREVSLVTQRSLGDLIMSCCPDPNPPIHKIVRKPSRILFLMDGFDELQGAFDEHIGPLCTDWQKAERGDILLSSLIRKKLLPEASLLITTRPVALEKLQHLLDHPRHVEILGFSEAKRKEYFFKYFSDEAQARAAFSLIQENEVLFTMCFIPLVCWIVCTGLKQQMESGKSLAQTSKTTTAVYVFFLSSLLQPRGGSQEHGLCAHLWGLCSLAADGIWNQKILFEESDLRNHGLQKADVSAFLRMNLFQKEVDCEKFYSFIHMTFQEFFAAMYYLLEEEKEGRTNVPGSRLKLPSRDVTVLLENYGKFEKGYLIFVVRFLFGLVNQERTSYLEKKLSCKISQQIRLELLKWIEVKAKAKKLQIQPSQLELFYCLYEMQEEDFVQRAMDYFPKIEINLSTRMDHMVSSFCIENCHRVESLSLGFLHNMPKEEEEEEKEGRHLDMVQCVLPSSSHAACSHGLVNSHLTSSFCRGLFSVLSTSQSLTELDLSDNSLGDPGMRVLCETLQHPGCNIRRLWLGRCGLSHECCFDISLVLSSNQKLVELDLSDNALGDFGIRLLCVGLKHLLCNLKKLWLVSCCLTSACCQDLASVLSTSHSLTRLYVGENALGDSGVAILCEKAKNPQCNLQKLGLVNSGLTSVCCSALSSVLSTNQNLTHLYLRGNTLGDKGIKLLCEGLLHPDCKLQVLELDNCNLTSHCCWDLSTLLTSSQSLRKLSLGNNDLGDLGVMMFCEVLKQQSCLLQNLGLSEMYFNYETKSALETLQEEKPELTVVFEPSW

Question: Which IC50 does the source give for `Cc1cc(C)c(-c2ccc(N3CCO[C@@H]4CCN(CCF)C[C@@H]43)nn2)c(O)c1` [Example 521, 2-[6-[(4aS,8aR)-6-(2-fluoroethyl)-3,4a,5,7,8,8a-hexahydro-2H-pyrido[4,3-b][1,4]oxazin-4-yl]pyridazin-3-yl]-3,5-dimethyl-phenol] here?
Answer: 28 nM

Question: How did the IC50 turn out when `CC(=O)NC[C@H]1CN(c2ccc(-c3c(C)cc(C)cc3O)nn2)CCO1` [Example 105, N-[[(2S)-4-[6-(2-hydroxy-4,6-dimethyl-phenyl)pyridazin-3-yl]morpholin-2-yl]methyl]acetamide] was run?
Answer: 335 nM

Question: With `CCN1CC[C@H]2OCCN(c3ccc(-c4c(C)cc(C(F)(F)F)cc4O)nn3)[C@@H]2C1` [Example 344, 2-[6-[(4aR,8aR)-6-ethyl-3,4a,5,7,8,8a-hexahydro-2H-pyrido[4,3-b][1,4]oxazin-4-yl]pyridazin-3-yl]-3-methyl-5-(trifluoromethyl)phenol] as the molecule, how does the IC50 read?
Answer: 223 nM

Question: With `Cc1cc(C)c(-c2ccc(N3CC[C@]4(COCCN4C)C3)nn2)c(O)c1` [Example 450, 3,5-dimethyl-2-[6-[(5R)-6-methyl-9-oxa-2,6-diazaspiro[4.5]decan-2-yl]pyridazin-3-yl]phenol] as the molecule, how does the IC50 read?
Answer: 2040 nM

Question: Which IC50 does the source give for `Cc1ccc(O)c(-c2ccc(N3CCO[C@H](CO)C3)nn2)c1` [Example 102, 2-[6-[(2S)-2-(hydroxymethyl)morpholin-4-yl]pyridazin-3-yl]-4-methyl-phenol] here?
Answer: > 10000 nM

Question: How did the IC50 turn out when `Cc1cc(C)c(-c2ccc(N3CC4(CC[C@@H](O)C4)C3)nn2)c(O)c1` (stereo in doubt) [Example 94, 2-[6-(2-hydroxy-4,6-dimethyl-phenyl)pyridazin-3-yl]-2-azaspiro[3.4]octan-6-ol] was run?
Answer: 1920 nM

Question: For `Oc1cc(Cl)cc(Cl)c1-c1ccc(N2CCC3(CC2)CC(O)C3)nn1` [Example 37, 7-[6-(2,4-dichloro-6-hydroxy-phenyl)pyridazin-3-yl]-7-azaspiro[3.5]nonan-2-ol], which IC50 is on record?
Answer: 893 nM

Question: For `Cc1cc(C)c(-c2ccc(N3CCC[C@H]4CCN(C)C[C@H]43)nn2)c(O)c1` [Example 518, 2-[6-[(4aS,8aS)-7-methyl-2,3,4,4a,5,6,8,8a-octahydro-1,7-naphthyridin-1-yl]pyridazin-3-yl]-3,5-dimethyl-phenol], which IC50 is on record?
Answer: 1220 nM

Question: With `Cc1cc(C)c(-c2ccc(N3CC[C@H]4CCN(C)C[C@H]43)nn2)c(O)c1` (single isomer, unassigned) [Example 383] as the molecule, how does the IC50 read?
Answer: 1010 nM

Question: How did the IC50 turn out when `CC(=O)N1CC[C@H]2CCN(c3cc(C)c(-c4ccc(C)cc4O)nn3)[C@H]2C1` [Example 457, 1-[(3aR,7aR)-1-[6-(2-hydroxy-4-methyl-phenyl)-5-methyl-pyridazin-3-yl]-3,3a,4,5,7,7a-hexahydro-2H-pyrrolo[2,3-c]pyridin-6-yl]ethenone] was run?
Answer: 432 nM

Question: For `Cc1cc(C)c(-c2ccc(N3CC[C@@]4(COCCN4C)C3)nn2)c(O)c1` [Example 451, 3,5-dimethyl-2-[6-[(5S)-6-methyl-9-oxa-2,6-diazaspiro[4.5]decan-2-yl]pyridazin-3-yl]phenol], which IC50 is on record?
Answer: 1650 nM

Question: For `Cc1cc(C)c(-c2ccc(N3CC4(CCC(O)C4)C3)nn2)c(O)c1` (stereo not drawn) [Example 84, 2-[6-(2-hydroxy-4,6-dimethyl-phenyl)pyridazin-3-yl]-2-azaspiro[3.4]octan-6-ol], which IC50 is on record?
Answer: 1770 nM

Question: Which IC50 does the source give for `CCN1CC[C@@H]2CCN(c3ccc(-c4c(O)cccc4C(F)(F)F)nn3)[C@@H]2C1` (single isomer, unassigned) [Example 473] here?
Answer: 5 nM

Question: Which IC50 does the source give for `Cc1cc(C(F)(F)F)cc(O)c1-c1ccc(N2CCOC(CO)C2=O)nn1` (single isomer, unassigned) [Example 420] here?
Answer: 601 nM

Question: `CN1CC[C@@H]2CCN(c3cc(C(F)F)c(-c4ccc(C(F)(F)F)cc4O)nn3)[C@@H]2C1` (single isomer, unassigned) [Example 482] was tested. Which IC50 did it give?
Answer: 172 nM

Question: With `CC(=O)N1CC[C@@H]2OCCN(c3ccc(-c4c(C)cc(C(F)(F)F)cc4O)nn3)[C@H]2C1` (single isomer, unassigned) [Example 349] as the molecule, how does the IC50 read?
Answer: 953 nM

Question: With `Cc1cc(C)c(-c2ccc(N3CC(=O)N[C@@H](CO)C3)nn2)c(O)c1` (single isomer, unassigned) [Example 329] as the molecule, how does the IC50 read?
Answer: 711 nM

Question: Which IC50 does the source give for `Cc1cc(Cl)cc(O)c1-c1ccc(N2CC[C@@H]3CCN(C)C[C@@H]32)nn1` (single isomer, unassigned) [Example 502] here?
Answer: 347 nM

Question: Which IC50 does the source give for `Cc1cc(C)c(-c2ccc(N3CCC[C@H](N(C)C)C3)nn2)c(O)c1` [Example 128, 2-[6-[(3S)-3-(dimethylamino)-1-piperidyl]pyridazin-3-yl]-3,5-dimethyl-phenol] here?
Answer: 779 nM

Question: `Cc1cc(C)c(-c2ccc(N3CC4(CCC(O)C4)C3)nn2)c(O)c1` (single isomer, unassigned) [Example 95, 2-[6-(2-hydroxy-4,6-dimethyl-phenyl)pyridazin-3-yl]-2-azaspiro[3.4]octan-6-ol] was tested. Which IC50 did it give?
Answer: 2200 nM

Question: How did the IC50 turn out when `CN(C)C[C@@H]1CN(c2ccc(-c3c(O)cc(Cl)cc3Cl)nn2)CCO1` [Example 43, 3,5-dichloro-2-[6-[(2R)-2-[(dimethylamino)methyl]morpholin-4-yl]pyridazin-3-yl]phenol] was run?
Answer: 603 nM

Question: Which IC50 does the source give for `Cc1cc(C(F)(F)F)cc(O)c1-c1ccc(N2CCOC(CO)C2=O)nn1` (single isomer, unassigned) [Example 419] here?
Answer: 127 nM

Question: `CC(=O)N1CC[C@@H]2CCN(c3ccc(-c4c(C)cc(C)cc4O)nn3)[C@@H]2C1` (single isomer, unassigned) [Example 414] was tested. Which IC50 did it give?
Answer: 699 nM

Question: `Cc1cc(C)c(-c2nnc(N3CCO[C@H](CO)C3)cc2C)c(O)c1` [Example 112, 2-[6-[(2S)-2-(hydroxymethyl)morpholin-4-yl]-4-methyl-pyridazin-3-yl]-3,5-dimethyl-phenol] was tested. Which IC50 did it give?
Answer: 88 nM

Question: With `CCc1cc(Cl)cc(O)c1-c1ccc(N2CC[C@@H]3CCN(C)C[C@@H]32)nn1` (single isomer, unassigned) [Example 494] as the molecule, how does the IC50 read?
Answer: 1 nM

Question: For `Cc1ccc(-c2cc(C)c(N3CCO[C@H](CO)C3)nn2)c(O)c1` [Example 110, 2-[6-[(2S)-2-(hydroxymethyl)morpholin-4-yl]-5-methyl-pyridazin-3-yl]-5-methyl-phenol], which IC50 is on record?
Answer: 3760 nM

Question: How did the IC50 turn out when `Cc1cc(C(F)(F)F)cc(O)c1-c1ccc(N2CC[C@H]3CCNC[C@H]32)nn1` (single isomer, unassigned) [Example 393] was run?
Answer: 461 nM

Question: How did the IC50 turn out when `Cc1cc(C)c(-c2ccc(N3C[C@H](O)CO3)nn2)c(O)c1` [Example 179, (4S)-2-[6-(2-hydroxy-4,6-dimethyl-phenyl)pyridazin-3-yl]isoxazolidin-4-ol] was run?
Answer: 897 nM

Question: With `Cc1cc(C)c(-c2ccc(N3CCc4cccc(O)c43)nn2)c(O)c1` [Example 253, 1-[6-(2-hydroxy-4,6-dimethyl-phenyl)pyridazin-3-yl]indolin-7-ol] as the molecule, how does the IC50 read?
Answer: 6750 nM

Question: `Cc1ccc(O)c(-c2ccc(N3CCO[C@H](CO)C3)nn2)c1C` [Example 191, 2-[6-[(2S)-2-(hydroxymethyl)morpholin-4-yl]pyridazin-3-yl]-3,4-dimethylphenol] was tested. Which IC50 did it give?
Answer: 1120 nM

Question: How did the IC50 turn out when `Cc1cc(C)c(-c2ccc(N3CCC[C@@H]4CCN(C)C(=O)[C@@H]43)nn2)c(O)c1` (racemic) [Example 290, rac-(4aR,8aR)-1-[6-(2-hydroxy-4,6-dimethyl-phenyl)pyridazin-3-yl]-7-methyl-3,4,4a,5,6,8a-hexahydro-2H-1,7-naphthyridin-8-one] was run?
Answer: 145 nM

Question: How did the IC50 turn out when `CCc1cc(Cl)cc(O)c1-c1ccc(N2CCO[C@@H]3CCN(CC)C[C@@H]32)nn1` [Example 526, 2-[6-[(4aS,8aR)-6-ethyl-3,4a,5,7,8,8a-hexahydro-2H-pyrido[4,3-b][1,4]oxazin-4-yl]pyridazin-3-yl]-5-chloro-3-ethyl-phenol] was run?
Answer: 1 nM

Question: With `Cc1cc(C)c(-c2ccc(N3CCO[C@@H](C(=O)N(C)C)C3)nn2)c(O)c1` [Example 184, (2R)-4-[6-(2-hydroxy-4,6-dimethylphenyl)pyridazin-3-yl]-N,N-dimethylmorpholine-2-carboxamide] as the molecule, how does the IC50 read?
Answer: 660 nM

Question: Which IC50 does the source give for `CC(=O)NC[C@@H]1CN(c2ccc(-c3c(C)cc(C)cc3O)nn2)CCO1` [Example 106, N-[[(2R)-4-[6-(2-hydroxy-4,6-dimethyl-phenyl)pyridazin-3-yl]morpholin-2-yl]methyl]acetamide] here?
Answer: 174 nM

Question: With `CN1CC[C@H]2CCN(c3cc(C(F)F)c(-c4ccc(C(F)(F)F)cc4O)nn3)[C@H]2C1` (single isomer, unassigned) [Example 483] as the molecule, how does the IC50 read?
Answer: 1 nM

Question: `COC[C@H]1CCN(c2ccc(-c3c(C)cc(C)cc3O)nn2)C1` [Example 82, 2-[6-[(3S)-3-(methoxymethyl)pyrrolidin-1-yl]pyridazin-3-yl]-3,5-dimethyl-phenol] was tested. Which IC50 did it give?
Answer: 481 nM

Question: With `CCN1CC[C@@H]2CCN(c3ccc(-c4c(C)cc(C)cc4O)nn3)[C@@H]2C1` (single isomer, unassigned) [Example 505] as the molecule, how does the IC50 read?
Answer: 0.4 nM

Question: With `CCc1cccc(O)c1-c1cc(C)c(N2CCO[C@@H]3CCN(C)C[C@@H]32)nn1` [Example 439, 2-[6-[(4aS,8aR)-6-methyl-3,4a,5,7,8,8a-hexahydro-2H-pyrido[4,3-b][1,4]oxazin-4-yl]-5-methyl-pyridazin-3-yl]-3-ethyl-phenol] as the molecule, how does the IC50 read?
Answer: 569 nM

Question: `Cc1ccc(-c2ccc(N3CCO[C@H](CO)C3)nn2)c(O)c1` [Example 92, 2-[6-[(2S)-2-(hydroxymethyl)morpholin-4-yl]pyridazin-3-yl]-5-methyl-phenol] was tested. Which IC50 did it give?
Answer: 2200 nM

Question: With `Cc1cc(C(F)(F)F)cc(O)c1-c1ccc(N2CCC[C@@H]3CCN(C)C[C@@H]32)nn1` [Example 523, 2-[6-[(4aR,8aR)-7-methyl-2,3,4,4a,5,6,8,8a-octahydro-1,7-naphthyridin-1-yl]pyridazin-3-yl]-3-methyl-5-(trifluoromethyl)phenol] as the molecule, how does the IC50 read?
Answer: 681 nM

Question: `CCN1CC[C@@H]2CCN(c3ccc(-c4c(C)cccc4O)nn3)[C@@H]2C1` (single isomer, unassigned) [Example 499] was tested. Which IC50 did it give?
Answer: 3 nM

Question: With `Cc1cc(C(F)(F)F)cc(O)c1-c1ccc(N2CCC[C@H](CO)C2=O)nn1` (single isomer, unassigned) [Example 287] as the molecule, how does the IC50 read?
Answer: 115 nM
